Assay results reported in patent US6693112B2, “Compounds for enhancing chemotherapy” (The Pennsylvania State University, priority 2000, dated 2004).
Read-outs that look alike come from different tables or passages of the source.

Experiments:
T24 cells = test: Drug cytotoxicity with or without 10 μM modulator, T24 cells (Table V)
MCF-7 cells [1] = test: Drug cytotoxicity with or without 10 μM modulator, MCF-7 cells (Table V)
P388/ADR cells = test: Drug cytotoxicity with or without 10 μM modulator, P388/ADR cells (Table V); settings: for IC50: read-out: IC50 (EtOH)
NCI/ADR cells [2] = test: Drug cytotoxicity with or without 10 μM modulator, NCI/ADR cells (Table V); settings: for IC50: read-out: IC50 (EtOH)
A498 cells = test: Drug cytotoxicity with or without 10 μM modulator, A498 cells (Table V)
MCF7/VP cells = test: Drug cytotoxicity with or without 10 μM modulator, MCF7/VP (MRP1) cells (Table V); settings: for IC50: read-out: IC50 (EtOH)
NCI/ADR cells [3] = test: Accumulation of [3H]Taxol and [3H]vinblastine by NCI/ADR cells; type: cell-based
MCF-7/VP cells = test: Accumulation of [3H]Taxol and [3H]vinblastine by MCF-7/VP cells; type: cell-based
MCF-7 cells [4] = test: Accumulation of [3H]Taxol and [3H]vinblastine by MCF-7 cells; type: cell-based, human
P-gp = P-gp (Homo sapiens, UniProt P08183)
Sequence of P-gp (P08183 whole entry): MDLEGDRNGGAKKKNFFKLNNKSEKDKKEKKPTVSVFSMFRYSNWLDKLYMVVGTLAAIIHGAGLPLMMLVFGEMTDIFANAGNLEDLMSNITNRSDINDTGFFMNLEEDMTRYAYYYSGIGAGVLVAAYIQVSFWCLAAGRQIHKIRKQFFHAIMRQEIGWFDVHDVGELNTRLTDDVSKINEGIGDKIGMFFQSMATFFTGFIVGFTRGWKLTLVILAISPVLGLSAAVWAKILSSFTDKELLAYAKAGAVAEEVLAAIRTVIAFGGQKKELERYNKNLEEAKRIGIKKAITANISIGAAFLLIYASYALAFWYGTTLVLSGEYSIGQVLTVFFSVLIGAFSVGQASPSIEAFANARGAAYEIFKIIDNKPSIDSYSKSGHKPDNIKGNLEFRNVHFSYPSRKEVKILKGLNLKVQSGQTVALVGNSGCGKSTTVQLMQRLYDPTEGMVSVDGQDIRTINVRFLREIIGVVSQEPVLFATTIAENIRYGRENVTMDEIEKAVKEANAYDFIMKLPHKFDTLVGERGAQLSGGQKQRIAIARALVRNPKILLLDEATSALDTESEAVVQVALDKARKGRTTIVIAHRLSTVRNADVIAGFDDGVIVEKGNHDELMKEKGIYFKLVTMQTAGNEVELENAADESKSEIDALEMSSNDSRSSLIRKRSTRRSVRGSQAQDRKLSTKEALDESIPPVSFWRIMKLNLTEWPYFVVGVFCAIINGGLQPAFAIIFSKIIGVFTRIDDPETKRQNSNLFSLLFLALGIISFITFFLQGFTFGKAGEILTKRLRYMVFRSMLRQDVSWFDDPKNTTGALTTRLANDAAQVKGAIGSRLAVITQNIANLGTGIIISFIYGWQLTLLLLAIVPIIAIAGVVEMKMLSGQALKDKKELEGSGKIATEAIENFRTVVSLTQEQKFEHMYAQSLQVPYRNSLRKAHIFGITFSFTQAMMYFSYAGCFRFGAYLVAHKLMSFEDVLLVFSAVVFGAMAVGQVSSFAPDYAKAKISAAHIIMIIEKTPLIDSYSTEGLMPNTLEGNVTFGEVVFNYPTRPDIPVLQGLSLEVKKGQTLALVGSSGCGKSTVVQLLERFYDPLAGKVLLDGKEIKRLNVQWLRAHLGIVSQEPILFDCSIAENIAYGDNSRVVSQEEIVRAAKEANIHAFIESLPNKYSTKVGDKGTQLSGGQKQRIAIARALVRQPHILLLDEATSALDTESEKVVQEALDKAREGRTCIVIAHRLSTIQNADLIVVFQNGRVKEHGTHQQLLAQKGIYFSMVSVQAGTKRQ
Protocol: The percentage of cells that died following treatment was calculated as a percent decrease in sulforhodamine B binding as compared with control cultures. […] Inhibition of P-gp was manifested as the ability of the compound to enhance the cytotoxicity of vinblastine toward NCI/ADR cells. To assess the toxicity of the compounds toward drug-sensitive cells, the effects of the compounds on the growth of drug-sensitive MCF-7 cells were determined using the same methods.
The P-gp antagonism score was calculated by dividing the percent survival of NCI/ADR cells treated with the compound alone by the percent survival of NCI/ADR cells treated with the compound in the presence of 50 nM vinblastine. Chemosensitization is indicated by a score of more than 1.0.
The P-gp antagonism score was calculated by dividing the percent survival of NCI/ADR cells treated with […] by the percent survival of NCI/ADR cells treated with the compound in the presence of 50 nM vinblastine.

MCF-7 cells [5] = test: Cytotoxicity toward drug-sensitive MCF-7 cells (sulforhodamine B binding assay); type: cell-based, human; settings: MCF-7 cells; concentration required to kill 50% of the cells
[6] = Homo sapiens, T-24, read-out: IC50 (EtOH)
[7] = Homo sapiens, MCF7, read-out: IC50 (EtOH)
[8] = Homo sapiens, A498, read-out: IC50 (EtOH)
[9] = T24 cells, IC50 in the absence / in the presence of 10 μM of verapamil or Compound 4008
[10] = MCF-7 cells, IC50 in the absence / in the presence of 10 μM of verapamil or Compound 4008
[11] = P388/ADR cells, IC50 in the absence / in the presence of 10 μM of verapamil or Compound 4008
[12] = NCI/ADR cells, IC50 in the absence / in the presence of 10 μM of verapamil or Compound 4008
[13] = A498 cells, IC50 in the absence / in the presence of 10 μM of verapamil or Compound 4008
[14] = MCF7/VP (MRP1) cells, IC50 in the absence / in the presence of 10 μM of verapamil or Compound 4008

SMILES: O=c1[nH]cc(F)c(=O)[nH]1 [5-Fluorouracil, 5-fluorouracil, reference compound]
- IC50 (T24 cells; [6]): 77000 ± 20000 nM
- IC50 (MCF-7 cells [1]; [7]): 49000 ± 31000 nM
- IC50 (P388/ADR cells; Mus musculus, P388/ADR): 220 ± 40 nM
- IC50 (NCI/ADR cells [2]; Homo sapiens, NCI/ADR-RES): 181000 ± 84000 nM
- IC50 (A498 cells; [8]): 9000 ± 2100 nM
- IC50 (MCF7/VP cells; Homo sapiens, MCF7-VP): 11000 ± 1000 nM

SMILES: N.N.[Cl][Pt][Cl] [Cisplatin, cisplatin, reference compound]
- IC50 (T24 cells; read-out: IC50 (EtOH), T24 cells, drug alone, EtOH solvent control, no modulator): 6700 ± 1100 nM
- IC50 (MCF-7 cells [1]; read-out: IC50 (EtOH), MCF-7 cells, drug alone, EtOH solvent control, no modulator): 16000 ± 5000 nM
- IC50 (P388/ADR cells; P388/ADR cells, drug alone, EtOH solvent control, no modulator): 2100 ± 800 nM
- IC50 (NCI/ADR cells [2]; NCI/ADR cells, drug alone, EtOH solvent control, no modulator): 7000 ± 900 nM
- IC50 (A498 cells; read-out: IC50 (EtOH), A498 cells, drug alone, EtOH solvent control, no modulator): 4600 ± 1000 nM
- IC50 (MCF7/VP cells; MCF7/VP (MRP1) cells, drug alone, EtOH solvent control, no modulator): 8500 ± 2100 nM

SMILES: O=C(Cc1ccccc1)Nc1c2c(nc3ccccc13)N(Cc1ccccc1)CC2 [Compound 4008]
- RI, 5-Fluorouracil (T24 cells; [9]): 2.6
- RI, Cisplatin (T24 cells; [9]): 1.1
- RI, Taxol (T24 cells; [9]): 1.2
- RI, Vinblastine (T24 cells; [9]): 3.8
- RI, Vincristine (T24 cells; [9]): 1.5
- RI, 5-Fluorouracil (MCF-7 cells [1]; [10]): 1.6
- RI, Cisplatin (MCF-7 cells [1]; [10]): 0.8
- RI, Taxol (MCF-7 cells [1]; [10]): 0.9
- RI, Vinblastine (MCF-7 cells [1]; [10]): 1.8
- RI, Vincristine (MCF-7 cells [1]; [10]): 0.9
- RI, 5-Fluorouracil (P388/ADR cells; [11]): 0.7
- RI, Cisplatin (P388/ADR cells; [11]): 1.9
- RI, Doxorubicin (P388/ADR cells; [11]): 200
- RI, Taxol (P388/ADR cells; [11]): 202
- RI, Vinblastine (P388/ADR cells; [11]): 63
- RI, Vincristine (P388/ADR cells; [11]): 30
- RI, 5-Fluorouracil (NCI/ADR cells [2]; [12]): 1.0
- RI, Cisplatin (NCI/ADR cells [2]; [12]): 1.2
- RI, Taxol (NCI/ADR cells [2]; [12]): 70
- RI, Vinblastine (NCI/ADR cells [2]; [12]): 35
- RI, Vincristine (NCI/ADR cells [2]; [12]): 18
- accumulation of [3H]Taxol and [3H]vinblastine (NCI/ADR cells [3]): increases the accumulation
- accumulation of [3H]Taxol and [3H]vinblastine (MCF-7/VP cells): without affecting the accumulation
- RI, 5-Fluorouracil (A498 cells; [13]): 0.7
- RI, Cisplatin (A498 cells; [13]): 0.8
- RI, Taxol (A498 cells; [13]): 6.8
- RI, Vinblastine (A498 cells; [13]): 18
- RI, Vincristine (A498 cells; [13]): 18
- accumulation of [3H]Taxol and [3H]vinblastine (MCF-7 cells [4]): without affecting the accumulation
- Maximum Antagonism (P-gp): 17.1 (3.1)
- Maximum Antagonism (conc. μg/ml) (P-gp): 17.1 (3.1) μg/ml
- therapeutic index (P-gp): at least 10 fold
- RI, 5-Fluorouracil (MCF7/VP cells; [14]): 0.7
- RI, Cisplatin (MCF7/VP cells; [14]): 0.8
- RI, Taxol (MCF7/VP cells; [14]): 0.8
- RI, Vinblastine (MCF7/VP cells; [14]): 1.3
- RI, Vincristine (MCF7/VP cells; [14]): 1.0
- enhancement of the toxicity of vincristine toward MCF7/VP cells (MCF7/VP cells; MRP1-overexpressing MCF7/VP cells): no effect
- Toxicity IC50 (MCF-7 cells [5]): 5 µg/mL

SMILES: COc1cccc2c1C(=O)c1c(O)c3c(c(O)c1C2=O)C[C@@](O)(C(=O)CO)C[C@@H]3O[C@H]1C[C@H](N)[C@H](O)[C@H](C)O1 [Doxorubicin, reference compound]
- IC50 (P388/ADR cells; Mus musculus, P388/ADR): 26700 ± 10600 nM

SMILES: CC(=O)O[C@H]1C(=O)[C@@]2(C)[C@H]([C@H](OC(=O)c3ccccc3)[C@]3(O)C[C@H](OC(=O)[C@H](O)[C@@H](NC(=O)c4ccccc4)c4ccccc4)C(C)=C1C3(C)C)[C@]1(OC(C)=O)CO[C@@H]1C[C@@H]2O [Taxol, reference compound]
- IC50 (T24 cells; [6]): 4.7 ± 0.5 nM
- IC50 (MCF-7 cells [1]; [7]): 1.6 ± 0.3 nM
- IC50 (P388/ADR cells; Mus musculus, P388/ADR): 1650 ± 470 nM
- IC50 (NCI/ADR cells [2]; Homo sapiens, NCI/ADR-RES): 2020 ± 810 nM
- IC50 (A498 cells; [8]): 49 ± 21 nM
- IC50 (MCF7/VP cells; Homo sapiens, MCF7-VP): 1.8 ± 0.4 nM

SMILES: CC[C@]1(O)C[C@@H]2CN(CCc3c([nH]c4ccccc34)[C@@](C(=O)OC)(c3cc4c(cc3OC)N(C)[C@H]3[C@@](O)(C(=O)OC)[C@H](OC(C)=O)[C@]5(CC)C=CCN6CC[C@]43[C@@H]65)C2)C1 [Vinblastine, vinblastine, reference compound]
- IC50 (T24 cells; [6]): 1.3 ± 0.3 nM
- IC50 (MCF-7 cells [1]; [7]): 0.4 ± 0.1 nM
- IC50 (P388/ADR cells; Mus musculus, P388/ADR): 28 ± 5 nM
- IC50 (NCI/ADR cells [2]; Homo sapiens, NCI/ADR-RES): 110 ± 17 nM
- IC50 (A498 cells; [8]): 7.6 ± 2.6 nM
- IC50 (MCF7/VP cells; Homo sapiens, MCF7-VP): 0.6 ± 0.1 nM

SMILES: CC[C@]1(O)C[C@H]2CN(CCc3c([nH]c4ccccc34)[C@@](C(=O)OC)(c3cc4c(cc3OC)N(C=O)[C@H]3[C@@](O)(C(=O)OC)[C@H](OC(C)=O)[C@]5(CC)C=CCN6CC[C@]43[C@@H]65)C2)C1 [Vincristine, vincristine, reference compound]
- IC50 (T24 cells; [6]): 4.8 ± 0.2 nM
- IC50 (MCF-7 cells [1]; [7]): 0.6 ± 0.1 nM
- IC50 (P388/ADR cells; Mus musculus, P388/ADR): 150 ± 24 nM
- IC50 (NCI/ADR cells [2]; Homo sapiens, NCI/ADR-RES): 183 ± 14 nM
- IC50 (A498 cells; [8]): 62 ± 11 nM
- IC50 (MCF7/VP cells; Homo sapiens, MCF7-VP): 7.5 ± 1.1 nM
